According to US12258328B2, “6-membered heteroaryl-containing aminopyridine compounds as EGFR inhibitors” (YUHAN CORPORATION, priority 2021, dated 2025):
Read-outs that look alike come from different tables or passages of the source.

How the values were obtained:
EGFR L858R/T790M/C797S = EGFR L858R/T790M/C797S (Homo sapiens, UniProt P00533, C797S/L858R/T790M); assay: Biochemical EGFR kinase assay (Lance Ultra TR-FRET), triple mutant L858R/T790M/C797S
Outline: (§1)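 In this biochemical assay, phosphorylation after a one-hour room-temperature reaction was detected with europium-labelled anti-phosphopeptide antibody at 2 nM final concentration.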

EGFR del19/C797S = EGFR del19/C797S (Homo sapiens, UniProt P00533, C797S/DEL746-750); assay: Biochemical EGFR kinase assay (Lance Ultra TR-FRET), double mutant del19/C797S
Outline: as §1

EGFR del19/T790M/C797S = EGFR del19/T790M/C797S (Homo sapiens, UniProt P00533, C797S/DEL746-750/T790M); assay: Biochemical EGFR kinase assay (Lance Ultra TR-FRET), triple mutant del19/T790M/C797S
Outline: as §1

EGFR L858R/C797S = EGFR L858R/C797S (Homo sapiens, UniProt P00533, C797S/L858R); assay: Biochemical EGFR kinase assay (Lance Ultra TR-FRET), double mutant L858R/C797S
Outline: as §1

EGFR wildtype = EGFR wildtype (Homo sapiens, UniProt P00533); assay: Biochemical EGFR kinase assay (Lance Ultra TR-FRET), wildtype
Outline: as §1

[1] = IC50 L858R/T790M/C797S (nM) 100 μM ATP, 100 μM ATP
[2] = Km ATP, read-out: IC50 L858R/T790M/C797S (nM) Km ATP
[3] = IC50 del19/C797S (nM) 100 μM ATP, 100 μM ATP
[4] = Km ATP, read-out: IC50 del19/C797S (nM) Km ATP
[5] = Km ATP, read-out: IC50 del19/T790M/C797S (nM) Km ATP
[6] = IC50 L858R/C797S (nM) 100 μM ATP, 100 μM ATP
[7] = Km ATP, read-out: IC50 L858R/C797S (nM) Km ATP
[8] = IC50 WT (nM) 100 μM ATP, 100 μM ATP
[9] = Km ATP, read-out: IC50 WT (nM) Km ATP
[10] = IC50 del19/T790M/C797S (nM) 100 μM ATP, 100 μM ATP

Sequence of EGFR del19/T790M/C797S (P00533 with tags, fused parts or gaps DEL746-750/T790M/C797S): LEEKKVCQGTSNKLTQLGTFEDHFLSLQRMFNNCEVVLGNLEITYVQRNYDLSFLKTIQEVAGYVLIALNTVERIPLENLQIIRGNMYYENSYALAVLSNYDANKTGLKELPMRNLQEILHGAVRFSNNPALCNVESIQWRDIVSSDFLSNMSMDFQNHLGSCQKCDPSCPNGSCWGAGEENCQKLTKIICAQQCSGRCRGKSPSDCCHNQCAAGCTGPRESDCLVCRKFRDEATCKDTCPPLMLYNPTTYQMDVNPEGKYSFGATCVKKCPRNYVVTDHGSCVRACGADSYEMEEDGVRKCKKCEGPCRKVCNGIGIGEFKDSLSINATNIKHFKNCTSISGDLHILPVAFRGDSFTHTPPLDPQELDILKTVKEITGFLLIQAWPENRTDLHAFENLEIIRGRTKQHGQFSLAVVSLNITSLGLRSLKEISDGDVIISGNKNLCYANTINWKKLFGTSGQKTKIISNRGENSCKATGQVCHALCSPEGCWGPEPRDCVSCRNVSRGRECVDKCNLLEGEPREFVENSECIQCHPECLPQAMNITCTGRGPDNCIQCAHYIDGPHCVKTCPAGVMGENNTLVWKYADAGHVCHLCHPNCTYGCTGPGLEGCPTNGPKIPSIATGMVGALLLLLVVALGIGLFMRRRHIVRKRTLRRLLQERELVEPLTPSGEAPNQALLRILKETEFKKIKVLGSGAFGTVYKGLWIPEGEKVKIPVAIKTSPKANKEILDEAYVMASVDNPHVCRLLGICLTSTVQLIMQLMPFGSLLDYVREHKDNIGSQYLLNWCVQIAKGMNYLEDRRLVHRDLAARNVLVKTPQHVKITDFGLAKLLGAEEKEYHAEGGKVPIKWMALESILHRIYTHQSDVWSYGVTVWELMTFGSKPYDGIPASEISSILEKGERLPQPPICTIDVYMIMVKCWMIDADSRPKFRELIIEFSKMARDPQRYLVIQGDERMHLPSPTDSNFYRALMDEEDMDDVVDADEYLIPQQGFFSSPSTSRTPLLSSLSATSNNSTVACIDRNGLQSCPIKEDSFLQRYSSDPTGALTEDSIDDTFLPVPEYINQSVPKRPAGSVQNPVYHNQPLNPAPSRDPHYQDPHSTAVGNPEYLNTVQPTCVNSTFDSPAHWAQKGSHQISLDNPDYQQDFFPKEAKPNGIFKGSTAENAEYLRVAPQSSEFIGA
Sequence of EGFR L858R/C797S (P00533 25-1210 C797S/L858R): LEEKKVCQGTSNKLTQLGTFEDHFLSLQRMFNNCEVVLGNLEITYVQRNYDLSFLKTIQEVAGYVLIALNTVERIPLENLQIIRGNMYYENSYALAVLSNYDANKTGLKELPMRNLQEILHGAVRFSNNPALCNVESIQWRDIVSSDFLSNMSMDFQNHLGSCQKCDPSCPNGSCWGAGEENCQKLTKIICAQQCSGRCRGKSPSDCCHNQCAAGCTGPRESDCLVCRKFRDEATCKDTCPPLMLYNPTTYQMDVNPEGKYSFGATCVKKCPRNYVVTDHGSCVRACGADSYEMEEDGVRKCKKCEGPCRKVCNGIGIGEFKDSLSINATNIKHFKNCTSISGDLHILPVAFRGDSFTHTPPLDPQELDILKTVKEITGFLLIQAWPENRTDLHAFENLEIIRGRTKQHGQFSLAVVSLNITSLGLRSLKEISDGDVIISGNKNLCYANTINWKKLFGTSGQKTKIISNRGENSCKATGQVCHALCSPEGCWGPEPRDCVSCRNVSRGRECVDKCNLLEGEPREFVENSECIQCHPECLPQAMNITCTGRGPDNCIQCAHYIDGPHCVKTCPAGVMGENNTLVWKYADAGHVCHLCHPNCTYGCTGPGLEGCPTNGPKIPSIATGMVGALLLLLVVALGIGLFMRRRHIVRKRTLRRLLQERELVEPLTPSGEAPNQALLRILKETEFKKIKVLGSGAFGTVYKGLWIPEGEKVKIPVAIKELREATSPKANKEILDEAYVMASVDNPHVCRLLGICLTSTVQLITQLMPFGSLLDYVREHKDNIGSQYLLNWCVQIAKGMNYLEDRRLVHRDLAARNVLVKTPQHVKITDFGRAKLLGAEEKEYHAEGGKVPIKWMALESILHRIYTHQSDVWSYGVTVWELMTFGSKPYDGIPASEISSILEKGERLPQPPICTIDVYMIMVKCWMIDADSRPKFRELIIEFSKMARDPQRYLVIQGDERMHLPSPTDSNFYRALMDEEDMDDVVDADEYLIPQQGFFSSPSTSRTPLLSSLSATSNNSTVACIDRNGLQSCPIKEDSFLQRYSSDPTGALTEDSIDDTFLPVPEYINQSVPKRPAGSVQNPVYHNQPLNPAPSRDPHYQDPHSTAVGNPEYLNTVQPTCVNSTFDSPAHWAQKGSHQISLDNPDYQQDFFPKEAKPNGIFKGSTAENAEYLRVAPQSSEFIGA
Sequence of EGFR L858R/T790M/C797S (P00533 25-1210 T790M/C797S/L858R): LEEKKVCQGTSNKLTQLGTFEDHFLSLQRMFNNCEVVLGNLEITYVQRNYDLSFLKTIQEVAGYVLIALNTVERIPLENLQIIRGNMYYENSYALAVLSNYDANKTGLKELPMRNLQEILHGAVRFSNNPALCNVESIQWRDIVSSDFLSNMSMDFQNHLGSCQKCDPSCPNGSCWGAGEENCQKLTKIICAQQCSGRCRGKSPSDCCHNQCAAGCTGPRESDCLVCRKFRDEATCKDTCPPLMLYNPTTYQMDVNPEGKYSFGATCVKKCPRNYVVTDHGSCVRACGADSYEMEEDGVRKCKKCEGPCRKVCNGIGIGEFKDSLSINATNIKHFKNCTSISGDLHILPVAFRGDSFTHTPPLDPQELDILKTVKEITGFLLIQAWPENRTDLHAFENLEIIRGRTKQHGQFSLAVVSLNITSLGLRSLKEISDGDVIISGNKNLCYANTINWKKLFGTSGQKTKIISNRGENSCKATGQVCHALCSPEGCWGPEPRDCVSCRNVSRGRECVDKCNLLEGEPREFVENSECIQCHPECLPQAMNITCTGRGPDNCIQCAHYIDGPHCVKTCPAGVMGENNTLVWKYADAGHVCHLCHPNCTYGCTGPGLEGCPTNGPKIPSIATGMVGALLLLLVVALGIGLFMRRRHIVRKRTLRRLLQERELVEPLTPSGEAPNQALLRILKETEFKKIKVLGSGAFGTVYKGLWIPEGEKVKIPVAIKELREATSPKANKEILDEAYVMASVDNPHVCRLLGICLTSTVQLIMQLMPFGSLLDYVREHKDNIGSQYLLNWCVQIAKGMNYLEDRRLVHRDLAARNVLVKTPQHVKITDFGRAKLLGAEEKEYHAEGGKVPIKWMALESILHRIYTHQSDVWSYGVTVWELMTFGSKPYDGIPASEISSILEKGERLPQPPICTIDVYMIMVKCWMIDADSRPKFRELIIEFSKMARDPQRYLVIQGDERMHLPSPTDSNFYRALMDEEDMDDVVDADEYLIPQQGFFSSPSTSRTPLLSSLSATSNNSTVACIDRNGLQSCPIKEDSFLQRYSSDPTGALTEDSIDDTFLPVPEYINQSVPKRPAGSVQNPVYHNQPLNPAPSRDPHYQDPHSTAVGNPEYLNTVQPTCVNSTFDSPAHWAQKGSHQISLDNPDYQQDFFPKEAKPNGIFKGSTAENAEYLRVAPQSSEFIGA
Sequence of EGFR del19/C797S (P00533 with tags, fused parts or gaps DEL746-750/C797S): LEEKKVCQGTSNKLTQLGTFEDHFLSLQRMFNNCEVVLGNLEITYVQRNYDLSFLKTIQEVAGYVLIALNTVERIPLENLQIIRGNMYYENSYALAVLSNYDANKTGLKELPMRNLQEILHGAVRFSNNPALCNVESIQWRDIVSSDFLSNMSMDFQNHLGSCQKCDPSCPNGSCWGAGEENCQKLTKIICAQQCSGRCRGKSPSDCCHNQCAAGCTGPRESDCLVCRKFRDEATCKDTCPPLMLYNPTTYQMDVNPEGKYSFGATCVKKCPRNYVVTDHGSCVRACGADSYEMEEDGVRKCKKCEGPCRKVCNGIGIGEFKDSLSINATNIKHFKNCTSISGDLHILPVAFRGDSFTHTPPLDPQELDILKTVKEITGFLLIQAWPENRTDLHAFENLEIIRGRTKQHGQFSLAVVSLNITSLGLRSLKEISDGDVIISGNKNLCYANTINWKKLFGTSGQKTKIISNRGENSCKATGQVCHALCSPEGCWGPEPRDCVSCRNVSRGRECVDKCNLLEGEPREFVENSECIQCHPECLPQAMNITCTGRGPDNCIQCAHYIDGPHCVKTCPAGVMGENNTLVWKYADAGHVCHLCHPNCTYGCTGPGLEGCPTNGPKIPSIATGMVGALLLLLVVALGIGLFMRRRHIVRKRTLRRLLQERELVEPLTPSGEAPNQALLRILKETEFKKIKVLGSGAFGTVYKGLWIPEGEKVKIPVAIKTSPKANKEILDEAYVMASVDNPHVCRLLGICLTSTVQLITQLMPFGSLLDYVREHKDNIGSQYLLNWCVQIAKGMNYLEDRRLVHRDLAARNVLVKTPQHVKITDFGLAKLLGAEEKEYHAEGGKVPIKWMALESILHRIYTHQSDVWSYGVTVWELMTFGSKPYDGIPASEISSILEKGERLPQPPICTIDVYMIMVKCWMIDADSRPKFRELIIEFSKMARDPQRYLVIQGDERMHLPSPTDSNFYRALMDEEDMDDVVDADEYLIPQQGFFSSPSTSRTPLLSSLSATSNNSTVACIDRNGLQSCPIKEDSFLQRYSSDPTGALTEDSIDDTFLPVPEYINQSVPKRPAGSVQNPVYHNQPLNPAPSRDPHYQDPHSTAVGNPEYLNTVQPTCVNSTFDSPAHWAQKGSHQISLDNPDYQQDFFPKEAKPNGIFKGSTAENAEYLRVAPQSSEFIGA

Row | Compound | IC50 (EGFR L858R/T790M/C797S; [1]) [nM] | IC50 (EGFR L858R/T790M/C797S; [2]) [nM] | IC50 (EGFR del19/C797S; [3]) [nM] | IC50 (EGFR del19/C797S; [4]) [nM] | IC50 (EGFR del19/T790M/C797S; [5]) [nM] | IC50 (EGFR L858R/C797S; [6]) [nM] | IC50 (EGFR L858R/C797S; [7]) [nM] | IC50 (EGFR wildtype; [8]) [nM] | IC50 (EGFR wildtype; [9]) [nM] | IC50 (EGFR del19/T790M/C797S; [10]) [nM]
1 | C[C@]1(O)CC[C@@H](Nc2cc(Nc3ccnc(-c4cnn(S(=O)(=O)C5CC5)c4)n3)ncc2-c2ccc(N3CCC(F)(F)CC3)cn2)CC1 [Example 47, (1s,4s)-4-((6′-((2-(1-(Cyclopropylsulfonyl)-1H-pyrazol-4-yl)pyrimidin-4-yl)amino)-5-(4,4-difluoropiperidin-1-yl)-[2,3′-bipyridin]-4′-yl)amino)-1-methylcyclohexan-1-ol] | 3 | 1 | 4.2 | 3.2 | 2 | 17.7 | 7.9 | > 10000 | 7.1 | –
2 | C[C@]1(O)CC[C@@H](Nc2cc(Nc3ccnc(-c4cnn(S(=O)(=O)C5CC5)c4)n3)ncc2-c2cc(N3CCOCC3)ccn2)CC1 [Example 48, (1s,4s)-4-((6′-((2-(1-(Cyclopropylsulfonyl)-1H-pyrazol-4-yl)pyrimidin-4-yl)amino)-4-morpholino-[2,3′-bipyridin]-4′-yl)amino)-1-methylcyclohexan-1-ol] | 2.1 | 0.3 | 5.8 | – | 0.5 | 83.3 | 14.1 | > 10000 | 24.7 | 0.6
3 | C[C@]1(O)CC[C@@H](Nc2cc(Nc3ccnc(-c4cnn(S(=O)(=O)C5CC5)c4)n3)ncc2-c2ccc(N3CCC(O)CC3)cn2)CC1 [Example 49, 1-(6′-((2-(1-(Cyclopropylsulfonyl)-1H-pyrazol-4-yl)pyrimidin-4-yl)amino)-4′-(((1s,4s)-4-hydroxy-4-methylcyclohexyl)amino)-[2,3′-bipyridin]-5-yl) piperidin-4-ol] | 0.3 | 0.1 | 0.8 | 0.5 | 0.3 | 2.4 | 0.3 | 294 | 0.5 | 0.3
4 | Cc1cc(-c2cnc(Nc3ccnc(-c4cnn(S(=O)(=O)C5CC5)c4)n3)cc2N[C@H]2CC[C@@](C)(O)CC2)nnc1C [Example 50, (1s,4s)-4-((2-((2-(1-(Cyclopropylsulfonyl)-1H-pyrazol-4-yl)pyrimidin-4-yl)amino)-5-(5,6-dimethylpyridazin-3-yl)pyridin-4-yl)amino)-1-methylcyclohexan-1-ol] | 0.1 | 0.1 | – | 0.5 | 0.3 | 2.2 | 0.4 | > 10000 | – | 0.2
5 | C[C@]1(O)CC[C@@H](Nc2cc(Nc3ccnc(-c4cnn(S(=O)(=O)C5CC5)c4)n3)ncc2-c2ccc(C(F)(F)F)nn2)CC1 [Example 51, (1s,4s)-4-((2-((2-(1-(Cyclopropylsulfonyl)-1H-pyrazol-4-yl)pyrimidin-4-yl)amino)-5-(6-(trifluoromethyl)pyridazin-3-yl)pyridin-4-yl)amino)-1-methylcyclohexan-1-ol] | 0.6 | 0.3 | 10.6 | 3.1 | 0.8 | 16.7 | 1 | > 10000 | – | 0.6
6 | Cc1ccc(-c2cnc(Nc3ccnc(-c4cnn(S(=O)(=O)C5CC5)c4)n3)cc2N[C@H]2CC[C@@](C)(O)CC2)nn1 [Example 52, (1s,4s)-4-((2-((2-(1-(Cyclopropylsulfonyl)-1H-pyrazol-4-yl)pyrimidin-4-yl)amino)-5-(6-methylpyridazin-3-yl)pyridin-4-yl)amino)-1-methylcyclohexan-1-ol] | 0.3 | 0.1 | 0.6 | 0.5 | 0.3 | – | 0.6 | > 10000 | 3 | 0.5
7 | C[C@]1(O)CC[C@@H](Nc2cc(Nc3ccnc(-c4cnn(S(=O)(=O)C5CC5)c4)n3)ncc2-c2ccc(N3CCCCC3)cn2)CC1 [Example 54, (1s,4s)-4-((6′-((2-(1-(Cyclopropylsulfonyl)-1H-pyrazol-4-yl)pyrimidin-4-yl)amino)-5-(piperidin-1-yl)-[2,3′-bipyridin]-4′-yl)amino)-1-methylcyclohexan-1-ol] | 5.1 | – | 9.7 | 5.6 | 12.5 | 7.3 | 1.4 | 5840 | 9.2 | 11.4
8 | CN1CCN(Cc2ccnc(-c3cnc(Nc4ccnc(-c5cnn(S(=O)(=O)C6CC6)c5)n4)cc3N[C@H]3CC[C@@](C)(O)CC3)c2)CC1 [Example 55, (1s,4s)-4-((6′-((2-(1-(Cyclopropylsulfonyl)-1H-pyrazol-4-yl)pyrimidin-4-yl)amino)-4-((4-methylpiperazin-1-yl)methyl)-[2,3′-bipyridin]-4′-yl)amino)-1-methylcyclohexan-1-ol] | 0.4 | – | 1.1 | 0.5 | 0.7 | 1 | 0.3 | 754 | 1.9 | 1.7
9 | COc1cnc(-c2cnc(Nc3ccnc(-c4cnn(S(=O)(=O)C5CC5)c4)n3)cc2N[C@H]2CC[C@@](C)(O)CC2)cn1 [Example 56, (1s,4s)-4-((2-((2-(1-(Cyclopropylsulfonyl)-1H-pyrazol-4-yl)pyrimidin-4-yl)amino)-5-(5-methoxypyrazin-2-yl)pyridin-4-yl)amino)-1-methylcyclohexan-1-ol] | 2.4 | – | 8.8 | 5.9 | – | 122 | – | > 10000 | 169 | 1.4
10 | O=S(=O)(C1CC1)n1cc(-c2nccc(Nc3cc(NC4CCC(CO)CC4)c(-c4ccc(N5CCOCC5)cn4)cn3)n2)cn1 (centres unmarked) [Example 57, ((1s,4s)-4-((6′-((2-(1-(Cyclopropylsulfonyl)-1H-pyrazol-4-yl)pyrimidin-4-yl)amino)-5-morpholino-[2,3′-bipyridin]-4′-yl)amino)cyclohexyl)methanol] | 1 | – | 1.7 | 2 | – | 4.5 | 0.7 | 636 | 4.8 | 1.7

More lines, now with the values ahead:

Row | IC50 (EGFR L858R/T790M/C797S; [1]) [nM] | IC50 (EGFR L858R/T790M/C797S; [2]) [nM] | IC50 (EGFR del19/C797S; [3]) [nM] | IC50 (EGFR del19/C797S; [4]) [nM] | IC50 (EGFR del19/T790M/C797S; [5]) [nM] | IC50 (EGFR L858R/C797S; [6]) [nM] | IC50 (EGFR L858R/C797S; [7]) [nM] | IC50 (EGFR wildtype; [8]) [nM] | IC50 (EGFR wildtype; [9]) [nM] | IC50 (EGFR del19/T790M/C797S; [10]) [nM] | Compound
11 | 1.1 | – | 7.2 | 8 | – | 56.4 | 1.7 | > 10000 | 97.7 | 1.1 | CN1CCN(c2ccnc(-c3cnc(Nc4ccnc(-c5cnn(S(=O)(=O)C6CC6)c5)n4)cc3N[C@H]3CC[C@@](C)(O)CC3)c2)CC1 [Example 58, (1s,4s)-4-((6′-((2-(1-(Cyclopropylsulfonyl)-1H-pyrazol-4-yl)pyrimidin-4-yl)amino)-4-(4-methylpiperazin-1-yl)-[2,3′-bipyridin]-4′-yl)amino)-1-methylcyclohexan-1-ol]
12 | 0.7 | 0.5 | 0.9 | 0.6 | 0.3 | 7.4 | 1 | > 10000 | 14.8 | 0.4 | Cc1cnc(-c2cnc(Nc3ccnc(-c4cnn(S(=O)(=O)C5CC5)c4)n3)cc2N[C@H]2CC[C@@](C)(O)CC2)cn1 [Example 59, (1s,4s)-4-((2-((2-(1-(Cyclopropylsulfonyl)-1H-pyrazol-4-yl)pyrimidin-4-yl)amino)-5-(5-methylpyrazin-2-yl)pyridin-4-yl)amino)-1-methylcyclohexan-1-ol]
13 | 0.4 | 0.2 | 0.5 | 0.4 | 0.2 | 4.2 | 0.4 | > 10000 | 6.8 | 0.2 | C[C@]1(O)CC[C@@H](Nc2cc(Nc3ccnc(-c4cnn(S(=O)(=O)C5CC5)c4)n3)ncc2-c2cnc(CO)cn2)CC1 [Example 60, (1s,4s)-4-((2-((2-(1-(Cyclopropylsulfonyl)-1H-pyrazol-4-yl)pyrimidin-4-yl)amino)-5-(5-(hydroxymethyl)pyrazin-2-yl)pyridin-4-yl)amino)-1-methylcyclohexan-1-ol]
14 | 0.2 | – | 0.4 | – | – | 1.8 | – | 3940 | – | 0.2 | C[C@]1(O)CC[C@@H](Nc2cc(Nc3ccnc(-c4cnn(S(=O)(=O)C5CC5)c4)n3)ncc2-c2cc(CN3CCOCC3)ccn2)CC1 [Example 61, (1s,4s)-4-((6′-((2-(1-(Cyclopropylsulfonyl)-1H-pyrazol-4-yl)pyrimidin-4-yl)amino)-4-(morpholinomethyl)-[2,3′-bipyridin]-4′-yl)amino)-1-methylcyclohexan-1-ol]
15 | 0.1 | – | 0.2 | – | – | 0.9 | – | 745 | – | 0.1 | CN1CCN(Cc2cnc(-c3cnc(Nc4ccnc(-c5cnn(S(=O)(=O)C6CC6)c5)n4)cc3N[C@H]3CC[C@@](C)(O)CC3)cn2)CC1 [Example 62, (1s,4s)-4-((2-((2-(1-(Cyclopropylsulfonyl)-1H-pyrazol-4-yl)pyrimidin-4-yl)amino)-5-(5-((4-methylpiperazin-1-yl)methyl)pyrazin-2-yl)pyridin-4-yl)amino)-1-methylcyclohexan-1-ol]
